The CheMixHub viscosity set

Assay: xn = mol fraction of the nth substance listed

CCCCCCCCCCO + CC#N
viscosity [mPa·s], 101 kPa
Settings	298.15 K	303.15 K	308.15 K
x2 = 0.0939	8.794	7.622	6.471
x2 = 0.2005	6.554	5.66	4.934
x2 = 0.301	4.932	4.226	3.648
x2 = 0.3902	3.872	3.394	2.877
x2 = 0.4935	2.848	2.467	2.15
x2 = 0.6249	1.83	1.678	1.441
x2 = 0.7216	1.302	1.189	1.053
x2 = 0.7933	1.021	0.864	0.777
x2 = 0.8544	0.79	0.636	0.586
x2 = 0.9006	0.548	0.51	0.479
x2 = 0.9382	0.46	0.431	0.411
x2 = 0.9708	0.395	0.379	0.358

OCCOCCOCCO + CCC(C)O
viscosity [mPa·s], 100 kPa
Settings	x1 = 0.0808	x1 = 0.1599	x1 = 0.2399	x1 = 0.35	x1 = 0.44	x1 = 0.5558	x1 = 0.6502	x1 = 0.7399	x1 = 0.8502	x1 = 0.94
293.15 K	5.57	7.33	9.21	12.23	15.18	19.7	24.16	29.07	36.18	43.08
298.15 K	4.23	5.59	7	9.31	11.53	14.96	18.37	22.16	27.73	33.06
303.15 K	3.68	4.84	6.08	7.92	9.7	12.38	15.03	17.95	22.19	26.32
308.15 K	3.18	4.17	5.17	6.64	7.98	10.05	12.09	14.34	17.76	21
313.15 K	2.58	3.33	4.17	5.42	6.58	8.32	10.01	11.91	14.65	17.26
318.15 K	2.26	3.02	3.79	4.92	5.92	7.37	8.75	10.23	12.32	14.31
323.15 K	1.94	2.54	3.17	4.12	4.97	6.23	7.4	8.65	10.4	11.99
